Measurements reported in US12486278B2, “MASP-2 inhibitors and methods of use” (Omeros Corporation, priority 2019, dated 2025).
Structures can show the parent of a compound that is named as a salt.

Target: T1, MASP-2 (CCP1-CCP2-SP) (Homo sapiens, UniProt O00187)
T1 construct: 15 μL of Enzyme MASP-2 (CCP1-CCP2-SP) in Assay Buffer
Experiment: Enzymatic Assay for MASP-2 (fluorogenic substrate)
Type: biochemical
Conditions: fluorogenic substrate based on C2 cleavage site; room temperature, 20 min; 20 mM HEPES pH 7.4, 140 mM NaCl, 0.1% Tween 20
Protocol: The MASP-2 assay utilizes a fluorogenic substrate, based on the cleavage site for its natural substrate C2. The assay is run at room temperature in an assay buffer containing 20 mM HEPES, pH 7.4, 140 mM NaCl and 0.1% Tween 20. Assay parameters are adjusted such that the assay is linear with respect to time, enzyme, and substrate concentrations. Under these optimized assays conditions, IC50 values are equivalent to Ki values, except in a few cases of “tight binding” inhibitors. Cases of “tight binding” or possible “slow binding” inhibitors are handled by the methods described in Copeland R. A. (2013) Evaluation of Enzyme Inhibitors in Drug Discovery. 2nd Ed., John Wiley and Sons, Inc., Chapters 5-7.
The MASP-2 assay protocol is carried out as follows. Test compounds are serially diluted in DMSO and then 100 nL of each dilution is transferred to the assay plate(s). 10 μL of Assay Buffer is added, followed by 15 μL of Enzyme MASP-2 (CCP1-CCP2-SP) in Assay Buffer. 15 μL of Substrate in Assay Buffer is then added and mixed to start the reactions. After 20 min at room temperature, 15 μL of a stop solution (0.1 M acetic acid) is added, mixed and the plates are read on a SpectraMax i3x Microplate Reader and exported as Excel files. Each assay plate included a “no inhibitor” (DMSO Only) control, a “no enzyme” control and a reference inhibitor control. % Activity values=100*(average test comp. fluorescence−average “no enzyme” fluorescence)/(average “DMSO only” fluorescence−average “no enzyme” fluorescence). IC50 and Ki values are very reproducible, falling well within ±2-fold.

T1 sequence (O00187 445-686 limits assumed): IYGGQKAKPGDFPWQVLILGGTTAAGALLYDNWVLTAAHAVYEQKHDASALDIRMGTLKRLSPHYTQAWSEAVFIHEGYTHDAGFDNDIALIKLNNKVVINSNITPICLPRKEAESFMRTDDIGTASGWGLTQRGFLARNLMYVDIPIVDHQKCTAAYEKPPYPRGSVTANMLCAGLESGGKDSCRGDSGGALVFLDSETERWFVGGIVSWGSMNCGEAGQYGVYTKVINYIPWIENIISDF
T1 sequence (O00187 298-444 partner limits assumed): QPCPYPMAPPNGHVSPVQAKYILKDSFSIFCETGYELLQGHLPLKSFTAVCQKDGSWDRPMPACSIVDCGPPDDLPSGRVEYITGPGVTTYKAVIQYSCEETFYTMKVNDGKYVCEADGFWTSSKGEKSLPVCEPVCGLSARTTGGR

| SMILES | Ki [nM] |
| --- | --- |
| C[C@H](NC(=O)[C@H]1C[C@@H](c2ccc(-c3cccnc3)cc2)CCN1)C(=O)NCc1cc2cnccc2[nH]1 [Compound I-73, (2R,4S)—N—((S)-1-(((1H-Pyrrolo[3,2-C]Pyridin-2-Yl)Methyl)Amino)-1-Oxopropan-2-Yl)-4-(4-(Pyridin-3-Yl)Phenyl)Piperidine-2-Carboxamide Tri-Trifluoroacetate] | < 500 |
| COC(=O)c1cccc(C[C@@H]2CN[C@@H](C(=O)N[C@@H](C)C(=O)NCc3ccc(C(=N)N)cc3)C2)c1 [Compound I-54, Methyl 3-(((3S,5R)-5-(((S)-1-((4-Carbamimidoylbenzyl)Amino)-1-Oxopropan-2-Yl)Carbamoyl)Pyrrolidin-3-Yl)Methyl)Benzoate Di-Trifluoroacetate] | < 500 |
| C[C@H](NC(=O)[C@H]1C[C@H](Cc2ccc(F)c(Cl)c2)CN1CCC(=O)O)C(=O)NCc1ccc(C(=N)N)cc1 [Compound I-36, 3-((2R,4S)-2-(((S)-1-((4-Carbamimidoylbenzyl)Amino)-1-Oxopropan-2-Yl)Carbamoyl)-4-(3-Chloro-4-Fluorobenzyl)Pyrrolidin-1-Yl)Propanoic Acid Di-Trifluoroacetate] | < 500 |
| C[C@H](NC(=O)[C@H]1C[C@H](Oc2ccccc2)CN1)C(=O)NCc1ccc(C(=N)N)cc1 [Compound I-96, (2R,4S)—N—((S)-1-((4-Carbamimidoylbenzyl)amino)-1-oxopropan-2-yl)-4-phenoxypyrrolidine-2-carboxamide di-trifluoroacetate] | < 500 |
| C[C@H](NC(=O)[C@H]1C[C@H](Oc2ccccc2)CN1)C(=O)NCc1cc2cnccc2[nH]1 [Compound I-97, (2R,4S)—N—((S)-1-(((1H-Pyrrolo[3,2-c]pyridin-2-yl)methyl)amino)-1-oxopropan-2-yl)-4-phenoxypyrrolidine-2-carboxamide di-trifluoroacetate] | < 500 |
| C[C@H](NC(=O)[C@H]1C[C@H](Cc2ccccc2)CN1)C(=O)NCc1ccc2nccn2c1 [Compound I-59, (2R,4S)-4-Benzyl-N—((S)-1-((Imidazo[1,2-A]Pyridin-6-Ylmethyl)Amino)-1-Oxopropan-2-Yl Pyrrolidine-2-Carboxamide Trifluoroacetate] | > 10000 |
| Cc1nc(N)ccc1CNC(=O)[C@@H]1CCN1C(=O)[C@H]1C[C@H](c2cccc(-c3ccccc3)c2)CN1 [Compound I-64, (S)-1-((2R,4R)-4-([1,1′-Biphenyl]-3-Yl)Pyrrolidine-2-Carbonyl)-N-((6-Amino-2-Methylpyridin-3-Yl)Methyl)Azetidine-2-Carboxamide Di-Trifluoroacetate] | < 500 |
| C[C@H](NC(=O)[C@H]1C[C@@H](c2ccccc2)CCN1CCC(=O)O)C(=O)NCc1cc(Cl)ccc1-n1cnnn1 [Compound I-29, 3-((2R,4S)-2-(((S)-1-((5-Chloro-2-(1H-Tetrazol-1-Yl)Benzyl)Amino)-1-Oxopropan-2-Yl)Carbamoyl)-4-Phenylpiperidin-1-Yl)Propanoic Acid Trifluoroacetate] | 2500 to 10000 |
| Cc1nc(N)ccc1CNC(=O)[C@@H]1COC(=O)N1C(=O)[C@H]1C[C@H](Cc2ccccc2)CN1 [Compound I-58, (S)—N-((6-Amino-2-Methylpyridin-3-Yl)Methyl)-3-((2R,4S)-4-Benzylpyrrolidine-2-Carbonyl)-2-Oxooxazolidine-4-Carboxamide Di-Trifluoroacetate] | < 500 |
| C[C@H](NC(=O)[C@H]1C[C@@H](c2ccc(-c3ccccc3)cc2)CCN1)C(=O)NCc1ccc(C(=N)N)cc1 [Compound I-69, (2R,4S)-4-([1,1′-Biphenyl]-4-Yl)-N—((S)-1-((4-Carbamimidoylbenzyl)Amino)-1-Oxopropan-2-Yl)Piperidine-2-Carboxamide Di-Trifluoroacetate] | < 500 |
| C[C@H](NC(=O)[C@H]1C[C@H](c2ccccc2)CN1)C(=O)NCc1[nH]c2ccncc2c1F [Compound I-7, (2R,4R)—N—((S)-1-(((3-Fluoro-1H-Pyrrolo[3,2-C]Pyridin-2-Yl)Methyl)Amino)-1-Oxopropan-2-Yl)-4-Phenylpyrrolidine-2-Carboxamide Di-Trifluoroacetate] | < 500 |
| CCOC(=O)CCN1CC[C@H](c2ccccc2)C[C@@H]1C(=O)N[C@@H](C)C(=O)NCc1cc2cnccc2[nH]1 [Compound I-106, Ethyl 3-((2R,4S)-2-(((S)-1-(((1H-pyrrolo[3,2-c]pyridin-2-yl)methyl)amino)-1-oxopropan-2-yl)carbamoyl)-4-phenylpiperidin-1-yl)propanoate] | < 500 |
| Cc1nc(N)ccc1CNC(=O)[C@H](C)NC(=O)[C@H]1C[C@@H](c2ccccc2)CCN1CCNS(C)(=O)=O [Compound I-41, (2R,4S)—N—((S)-1-(((6-Amino-2-Methylpyridin-3-Yl)Methyl)Amino)-1-Oxopropan-2-Yl)-1-(2-(Methylsulfonamido)Ethyl)-4-Phenylpiperidine-2-Carboxamide Di-Trifluoroacetate] | 2500 to 10000 |
| C[C@H](NC(=O)[C@H]1C[C@@H](c2ccc(-c3ccccc3)cc2)CCN1)C(=O)NCc1cc2cnccc2[nH]1 [Compound I-74, (2R,4S)—N—((S)-1-(((1H-Pyrrolo[3,2-C]Pyridin-2-Yl)Methyl)Amino)-1-Oxopropan-2-Yl)-4-([1,1′-Biphenyl]-4-Yl)Piperidine-2-Carboxamide Di-Trifluoroacetate] | < 500 |
| C[C@H](NC(=O)[C@H]1C[C@@H](c2ccccc2)CCN1CC(=O)O)C(=O)NCc1ccc(C(=N)N)cc1 [Compound I-34, 2-((2R,4S)-2-(((S)-1-((4-Carbamimidoylbenzyl)Amino)-1-Oxopropan-2-Yl)Carbamoyl)-4-Phenylpiperidin-1-Yl)Acetic Acid Di-Trifluoroacetate] | < 500 |
| CCOC(=O)CCN1CC[C@H](c2ccccc2)C[C@@H]1C(=O)N[C@@H](C)C(=O)NCc1cc(Cl)ccc1-n1cnnn1 [Compound I-28, Ethyl 3-((2R,4S)-2-(((S)-1-((5-Chloro-2-(1H-Tetrazol-1-Yl)Benzyl)Amino)-1-Oxopropan-2-Yl)Carbamoyl)-4-Phenylpiperidin-1-Yl)Propanoate] | 2500 to 10000 |
| C[C@H](NC(=O)[C@H]1C[C@@H](c2cc3ccccc3s2)CCN1)C(=O)NCc1ccc(C(=N)N)cc1 [Compound I-71, (2R,4S)-4-(Benzo[B]Thiophen-2-Yl)-N—((S)-1-((4-Carbamimidoylbenzyl)Amino)-1-Oxopropan-2-Yl)Piperidine-2-Carboxamide Di-Trifluoroacetate] | < 500 |

Next, values leading:

| Ki [nM] | SMILES |
| --- | --- |
| < 500 | C[C@H](NC(=O)[C@H]1C[C@H](Cc2ccc(F)c(Cl)c2)CN1)C(=O)NCc1ccc(C(=N)N)cc1 [Compound I-23, (2R,4S)—N—((S)-1-((4-Carbamimidoylbenzyl)Amino)-1-Oxopropan-2-Yl)-4-(3-Chloro-4-Fluorobenzyl)Pyrrolidine-2-Carboxamide Di-Trifluoroacetate] |
| 2500 to 10000 | C[C@H](NC(=O)[C@H]1C[C@H](Cc2ccccc2)CN1)C(=O)NCc1ccc2c(c1)ncn2C [Compound I-30, (2R,4S)-4-Benzyl-N—((S)-1-(((1-Methyl-1H-Benzo[D]Imidazol-5-Yl)Methyl)Amino)-1-Oxopropan-2-Yl)Pyrrolidine-2-Carboxamide Trifluoroacetate] |
| < 500 | Cc1nc(N)ccc1CNC(=O)[C@H](C)NC(=O)[C@H]1C[C@H](Cc2ccn(C)c(=O)c2)CN1 [Compound I-53, (2R,4S)—N—((S)-1-(((6-Amino-2-Methylpyridin-3-Yl)Methyl)Amino)-1-Oxopropan-2-Yl)-4-((1-Methyl-2-Oxo-1,2-Dihydropyridin-4-Yl)Methyl)Pyrrolidine-2-Carboxamide Di-Trifluoroacetate] |
| < 500 | C[C@H](NC(=O)[C@H]1C[C@H](Cc2ccc(Cl)s2)CN1)C(=O)NCc1cnc2[nH]cc(Cl)c2c1 [Compound I-83, (2R,4R)—N—((S)-1-(((3-Chloro-1H-Pyrrolo[2,3-B]Pyridin-5-Yl)Methyl)Amino)-1-Oxopropan-2-Yl)-4-((5-Chlorothiophen-2-Yl)Methyl)Pyrrolidine-2-Carboxamide Dihydrochloride] |
| < 500 | C[C@H](NC(=O)[C@H]1C[C@H](Cc2ccc(Cl)s2)CN1)C(=O)NCc1cnc2c(c1)c(Cl)cn2C [Compound I-84, (2R,4R)—N—((S)-1-(((3-Chloro-1-Methyl-1H-Pyrrolo[2,3-B]Pyridin-5-Yl)Methyl)Amino)-1-Oxopropan-2-Yl)-4-((5-Chlorothiophen-2-Yl)Methyl)Pyrrolidine-2-Carboxamide Dihydrochloride] |
| > 10000 | C[C@H](NC(=O)[C@H]1C[C@H](Cc2ccccc2)CN1)C(=O)NCc1ccc2ncc(Cl)n2c1 [Compound I-60, (2R,4S)-4-Benzyl-N—((S)-1-(((3-Chloroimidazo[1,2-A]Pyridin-6-Yl)Methyl)Amino)-1-Oxopropan-2-Yl)Pyrrolidine-2-Carboxamide Trifluoroacetate] |
| < 500 | C[C@H](NC(=O)[C@H]1C[C@H](Cc2ccccc2)CN1)C(=O)NCc1cnc2scc(Cl)c2c1 [Compound I-11, (2R,4S)-4-Benzyl-N—((S)-1-(((3-Chlorothieno[2,3-B]Pyridin-5-Yl)Methyl)Amino)-1-Oxopropan-2-Yl)Pyrrolidine-2-Carboxamide Trifluoroacetate] |
